Test system: MV-4-11 cells
Experiment: Gene expression microarray analysis (Affymetrix PrimeView) and GSEA
Type: cell-based, human
Parameters: RFU PODN (11730768_x_at) / Fold change /veh PODN (11730768_x_at) / RFU LINC00158 (11744669_a_at) / Fold change /veh LINC00158 (11744669_a_at) / RFU DUSP10 (11751237_a_at) / Fold change /veh DUSP10 (11751237_a_at) / RFU ID3 (11757404_x_at) / Fold change /veh ID3 (11757404_x_at) / RFU PLEKHG5 (11737974_s_at) / Fold change /veh PLEKHG5 (11737974_s_at) / RFU LRRC4B (11730491_at) / Fold change /veh LRRC4B (11730491_at) / RFU GIMAP4 (11747438_a_at) / Fold change /veh GIMAP4 (11747438_a_at) / RFU KRT8 (11758183_x_at) / Fold change /veh KRT8 (11758183_x_at) / RFU CNN1 (11734310_a_at) / Fold change /veh CNN1 (11734310_a_at) / RFU VPS37D (11726825_at) / Fold change /veh VPS37D (11726825_at) / RFU C10orf10 (11716522_x_at) / Fold change /veh C10orf10 (11716522_x_at) / RFU KIR2DL2 /// KIR2DL4 /// KIR2DL5A /// KIR2DL5B /// KIR2DS1 /// KIR2DS2 /// KIR2DS3 /// KIR2DS4 /// KIR3DL3 /// KIR3DL3 /// KIR3DS1 (11738374_at) / Fold change /veh KIR2DL2 /// KIR2DL4 /// KIR2DL5A /// KIR2DL5B /// KIR2DS1 /// KIR2DS2 /// KIR2DS3 /// KIR2DS4 /// KIR3DL3 /// KIR3DL3 /// KIR3DS1 (11738374_at) / RFU C1QL1 (11718748_at) / Fold change /veh C1QL1 (11718748_at) / RFU TMPRSS4 (11747572_a_at) / Fold change /veh TMPRSS4 (11747572_a_at) / RFU HAMP (11756126_x_at) / Fold change /veh HAMP (11756126_x_at) / RFU RNFT2 (11725882_a_at) / Fold change /veh RNFT2 (11725882_a_at) / RFU NR4A2 (11747474_a_at) / Fold change /veh NR4A2 (11747474_a_at) / RFU ABCC12 (11746883_a_at) / Fold change /veh ABCC12 (11746883_a_at) / RFU TMEM136 (11760407_x_at) / Fold change /veh TMEM136 (11760407_x_at) / RFU CLDN22 /// WWC2 (11732394_at) / Fold change /veh CLDN22 /// WWC2 (11732394_at) / RFU HLA-DPB1 (11760878_x_at) / Fold change /veh HLA-DPB1 (11760878_x_at) / RFU SPINT1 (11716480_a_at) / Fold change /veh SPINT1 (11716480_a_at) / RFU GAP43 (11754022_s_at) / Fold change /veh GAP43 (11754022_s_at) / RFU A4GNT (11735810_at) / Fold change /veh A4GNT (11735810_at) / RFU PRB3 (11715151_x_at) / Fold change /veh PRB3 (11715151_x_at) / RFU TUBB4B (11761932_at) / Fold change /veh TUBB4B (11761932_at) / RFU CAPN14 (11732068_a_at) / Fold change /veh CAPN14 (11732068_a_at) / RFU TMCC2 (11721928_a_at) / Fold change /veh TMCC2 (11721928_a_at) / RFU IRGQ (11745062_a_at) / Fold change /veh IRGQ (11745062_a_at) / RFU FAM174B (11720279_a_at) / Fold change /veh FAM174B (11720279_a_at) / RFU TMPRSS4 (11748680_a_at) / Fold change /veh TMPRSS4 (11748680_a_at) / RFU FAM212B (11763350_a_at) / Fold change /veh FAM212B (11763350_a_at) / RFU PLEKHG5 (11743358_a_at) / Fold change /veh PLEKHG5 (11743358_a_at) / RFU ZSCAN30 (11745921_a_at) / Fold change /veh ZSCAN30 (11745921_a_at) / RFU CMKLR1 (11741424_a_at) / Fold change /veh CMKLR1 (11741424_a_at) / RFU LOC101060620 /// MAPK8IP1 (11723275_at) / Fold change /veh LOC101060620 /// MAPK8IP1 (11723275_at) / RFU SPTSSB (11747773_x_at) / Fold change /veh SPTSSB (11747773_x_at) / RFU PRSS12 (11739890_at) / Fold change /veh PRSS12 (11739890_at) / RFU BIN1 (11741810_x_at) / Fold change /veh BIN1 (11741810_x_at) / RFU WNT11 (11732464_a_at) / Fold change /veh WNT11 (11732464_a_at) / RFU C10orf10 (11716521_a_at) / Fold change /veh C10orf10 (11716521_a_at) / RFU C5orf56 (11738089_at) / Fold change /veh C5orf56 (11738089_at) / RFU CYB561 (11721691_x_at) / Fold change /veh CYB561 (11721691_x_at) / RFU ANKRD19P (11752326_a_at) / Fold change /veh ANKRD19P (11752326_a_at) / RFU OR2T12 /// OR2T33 /// OR2T8 (11738714_s_at) / Fold change /veh OR2T12 /// OR2T33 /// OR2T8 (11738714_s_at) / RFU VCAN (11748164_a_at) / Fold change /veh VCAN (11748164_a_at) / RFU JSRP1 (11732532_at) / Fold change /veh JSRP1 (11732532_at) / RFU KRTAP10-11 (11738290_x_at) / Fold change /veh KRTAP10-11 (11738290_x_at) / RFU MYO3A (11730013_a_at) / Fold change /veh MYO3A (11730013_a_at) / RFU EBF3 (11725865_a_at) / Fold change /veh EBF3 (11725865_a_at) / RFU CAMK2N1 (11719241_x_at) / Fold change /veh CAMK2N1 (11719241_x_at) / RFU C5orf56 (11738088_a_at) / Fold change /veh C5orf56 (11738088_a_at) / RFU OLFML3 (11715873_a_at) / Fold change /veh OLFML3 (11715873_a_at) / RFU LOC100653217 /// NTM (11731650_a_at) / Fold change /veh LOC100653217 /// NTM (11731650_a_at) / RFU MAPK11 (11762145_a_at) / Fold change /veh MAPK11 (11762145_a_at) / RFU FIZ1 (11724087_x_at) / Fold change /veh FIZ1 (11724087_x_at) / RFU OASL (11726364_x_at) / Fold change /veh OASL (11726364_x_at) / RFU SOX15 (11748057_x_at) / Fold change /veh SOX15 (11748057_x_at) / RFU CD79A (11719716_a_at) / Fold change /veh CD79A (11719716_a_at) / RFU HIST1H1D (11736915_at) / Fold change /veh HIST1H1D (11736915_at) / RFU CASKIN2 (11723855_a_at) / Fold change /veh CASKIN2 (11723855_a_at) / RFU LOC730098 (11760151_x_at) / Fold change /veh LOC730098 (11760151_x_at) / RFU OR4N2 (11742367_at) / Fold change /veh OR4N2 (11742367_at) / RFU PRRT2 (11749266_a_at) / Fold change /veh PRRT2 (11749266_a_at) / RFU SNX32 (11753110_a_at) / Fold change /veh SNX32 (11753110_a_at) / RFU CDHR5 (11726645_a_at) / Fold change /veh CDHR5 (11726645_a_at) / RFU RCAN1 (11760418_a_at) / Fold change /veh RCAN1 (11760418_a_at) / RFU FAM167A (11723789_a_at) / Fold change /veh FAM167A (11723789_a_at) / RFU FAM26E (11764081_at) / Fold change /veh FAM26E (11764081_at) / RFU ISYNA1 (11749810_s_at) / Fold change /veh ISYNA1 (11749810_s_at) / RFU ACY1 (11761880_at) / Fold change /veh ACY1 (11761880_at) / RFU 11764098_at / Fold change /veh 11764098_at / RFU SAMD14 (11745864_x_at) / Fold change /veh SAMD14 (11745864_x_at) / RFU NPB (11741838_a_at) / Fold change /veh NPB (11741838_a_at) / RFU TMPRSS6 (11731388_a_at) / Fold change /veh TMPRSS6 (11731388_a_at) / RFU KRTAP10-2 (11738614_at) / Fold change /veh KRTAP10-2 (11738614_at) / RFU ARHGAP8 /// PRR5-ARHGAP8 (11727945_x_at) / Fold change /veh ARHGAP8 /// PRR5-ARHGAP8 (11727945_x_at) / RFU KRTAP5-7 /// NADSYN1 (11734609_at) / Fold change /veh KRTAP5-7 /// NADSYN1 (11734609_at) / RFU RASL12 (11751679_a_at) / Fold change /veh RASL12 (11751679_a_at) / RFU CDKN2B (11736163_a_at) / Fold change /veh CDKN2B (11736163_a_at) / RFU PRF1 (11729649_at) / Fold change /veh PRF1 (11729649_at) / RFU, ZNF638 /// ZNF638-IT1 / Fold change vs veh, ZNF638 /// ZNF638-IT1 / RFU, PANK3 / Fold change vs veh, PANK3 / RFU, SH3YL1 / Fold change vs veh, SH3YL1 / RFU, ZEB2 / Fold change vs veh, ZEB2 / RFU, NRIP1 / Fold change vs veh, NRIP1 / RFU, PTTG1IP / Fold change vs veh, PTTG1IP / RFU, CAPN2 / Fold change vs veh, CAPN2 / RFU, MED14 / Fold change vs veh, MED14 / RFU, SNORA58 / Fold change vs veh, SNORA58 / RFU, C1orf63 / Fold change vs veh, C1orf63 / RFU, LRRFIP1 / Fold change vs veh, LRRFIP1 / RFU, NDUFAF7 / Fold change vs veh, NDUFAF7 / RFU, SLC12A2 / Fold change vs veh, SLC12A2 / RFU, IBTK / Fold change vs veh, IBTK / RFU, ESF1 / Fold change vs veh, ESF1 / Fold change vs veh, TMEM50B / RFU, TAOK1 / Fold change vs veh, TAOK1 / RFU, ACBD3 / Fold change vs veh, ACBD3 / RFU, TMA16 / Fold change vs veh, TMA16 / RFU, RWDD3 / Fold change vs veh, RWDD3 / RFU, BCAT1 / Fold change vs veh, BCAT1 / RFU, EDEM3 / Fold change vs veh, EDEM3 / RFU, TMEM33 / Fold change vs veh, TMEM33 / RFU, WDR75 / Fold change vs veh, WDR75 / RFU, AHCTF1 / Fold change vs veh, AHCTF1 / RFU, TFRC / Fold change vs veh, TFRC / RFU, ZDHHC17 / Fold change vs veh, ZDHHC17 / RFU, NOM1 / Fold change vs veh, NOM1 / RFU, ARL8B / Fold change vs veh, ARL8B / RFU, ZBTB11 / Fold change vs veh, ZBTB11 / RFU, TAMM41 / Fold change vs veh, TAMM41 / RFU, KIAA1704 /// LOC100996395 / Fold change vs veh, KIAA1704 /// LOC100996395 / RFU, ING1 / Fold change vs veh, ING1 / RFU, TRMT61B / Fold change vs veh, TRMT61B / RFU, FUBP3 / Fold change vs veh, FUBP3 / RFU, TP53 / Fold change vs veh, TP53 / RFU, TNKS2 / Fold change vs veh, TNKS2 / RFU, ZFP14 / Fold change vs veh, ZFP14 / RFU, ACTR2 / Fold change vs veh, ACTR2 / RFU, PPP3R1 / Fold change vs veh, PPP3R1 / RFU, PIK3R1 / Fold change vs veh, PIK3R1 / RFU, HNRNPA1 / Fold change vs veh, HNRNPA1 / RFU, RNF170 / Fold change vs veh, RNF170 / RFU, ZNF28 / Fold change vs veh, ZNF28 / RFU, RNGTT / Fold change vs veh, RNGTT / RFU, OGT / Fold change vs veh, OGT / RFU, BRD1 / Fold change vs veh, BRD1 / RFU, MARS / Fold change vs veh, MARS / RFU, ZNF655 / Fold change vs veh, ZNF655 / RFU, FAHD1 / Fold change vs veh, FAHD1 / RFU, BDP1 / Fold change vs veh, BDP1 / RFU, LRRCC1 / Fold change vs veh, LRRCC1 / RFU, ARID1A / Fold change vs veh, ARID1A / RFU, ZNF146 / Fold change vs veh, ZNF146 / RFU, ZNF330 / Fold change vs veh, ZNF330 / RFU, GPN3 / Fold change vs veh, GPN3 / RFU, C9orf123 / Fold change vs veh, C9orf123 / RFU, N4BP2L2 / Fold change vs veh, N4BP2L2 / RFU, ARFIP1 / Fold change vs veh, ARFIP1 / RFU, FAM179B / Fold change vs veh, FAM179B / RFU, BCL10 / Fold change vs veh, BCL10 / RFU, UHRF1BP1L / Fold change vs veh, UHRF1BP1L / RFU, BET1 / Fold change vs veh, BET1 / RFU, CNOT2 / Fold change vs veh, CNOT2 / RFU, ZNF268 / Fold change vs veh, ZNF268 / Fold change vs veh, ZNF507 / RFU, DGCR2 / Fold change vs veh, DGCR2 / RFU, WDSUB1 / Fold change vs veh, WDSUB1 / Fold change vs veh, HSP90B1 /// MIR3652 / RFU, ADSS / Fold change vs veh, ADSS / RFU, GK / Fold change vs veh, GK / RFU, ZNF148 / Fold change vs veh, ZNF148 / RFU, TAF9 / Fold change vs veh, TAF9 / RFU, SLC1A5 / Fold change vs veh, SLC1A5 / RFU, SLMO2 / Fold change vs veh, SLMO2 / RFU, ABCC4 / Fold change vs veh, ABCC4 / RFU, LOC101060439 /// RAP1B / Fold change vs veh, LOC101060439 /// RAP1B / RFU, RFX7 / Fold change vs veh, RFX7 / RFU, GTPBP10 / Fold change vs veh, GTPBP10 / RFU, CNEP1R1 / Fold change vs veh, CNEP1R1 / RFU, BIVM-ERCC5 /// ERCC5 / Fold change vs veh, BIVM-ERCC5 /// ERCC5 / RFU, ILF3 / Fold change vs veh, ILF3 / RFU 11762660_at / Fold change /veh 11762660_at / RFU VCAN (11757783_s_at) / Fold change /veh VCAN (11757783_s_at) / RFU DDX43 (11728927_at) / Fold change /veh DDX43 (11728927_at) / RFU KRT8 (11758188_x_at) / Fold change /veh KRT8 (11758188_x_at) / RFU NKD1 (11759106_at) / Fold change /veh NKD1 (11759106_at) / RFU SRD5A1 (11742802_a_at) / Fold change /veh SRD5A1 (11742802_a_at) / RFU TPSAB1 /// TPSB2 (11721975_s_at) / Fold change /veh TPSAB1 /// TPSB2 (11721975_s_at) / RFU GSTM3 (11746129_a_at) / Fold change /veh GSTM3 (11746129_a_at) / RFU IL23R (11737362_x_at) / Fold change /veh IL23R (11737362_x_at) / RFU TMEM51 (11727254_a_at) / Fold change /veh TMEM51 (11727254_a_at) / RFU PIWIL2 (11732686_x_at) / Fold change /veh PIWIL2 (11732686_x_at) / RFU ORM1 (11744905_x_at) / Fold change /veh ORM1 (11744905_x_at) / RFU CCDC152 (11743942_at) / Fold change /veh CCDC152 (11743942_at) / RFU ECM1 (11717891_a_at) / Fold change /veh ECM1 (11717891_a_at) / RFU IL23R (11748794_a_at) / Fold change /veh IL23R (11748794_a_at) / RFU TNFAIP8L3 (11732012_x_at) / Fold change /veh TNFAIP8L3 (11732012_x_at) / RFU MBOAT4 (11741988_at) / Fold change /veh MBOAT4 (11741988_at) / RFU 11764193_at / Fold change /veh 11764193_at / RFU TMEM53 (11763286_at) / Fold change /veh TMEM53 (11763286_at) / RFU MAGEB2 (11727129_at) / Fold change /veh MAGEB2 (11727129_at) / RFU TMEM200A (11744735_a_at) / Fold change /veh TMEM200A (11744735_a_at) / RFU CCDC152 (11751479_a_at) / Fold change /veh CCDC152 (11751479_a_at) / RFU FAM211A (11726209_a_at) / Fold change /veh FAM211A (11726209_a_at) / RFU RGS16 (11746705_a_at) / Fold change /veh RGS16 (11746705_a_at) / RFU VCAN (11755009_s_at) / Fold change /veh VCAN (11755009_s_at) / RFU RHOB (11743442_s_at) / Fold change /veh RHOB (11743442_s_at) / RFU RGS16 (11720943_a_at) / Fold change /veh RGS16 (11720943_a_at) / RFU RGS16 (11720944_at) / Fold change /veh RGS16 (11720944_at) / RFU, VPS4B / Fold change vs veh, VPS4B / RFU, CREB1 / Fold change vs veh, CREB1 / RFU, DNAJC13 / Fold change vs veh, DNAJC13 / RFU, GNAQ / Fold change vs veh, GNAQ / RFU, CDK5R1 / Fold change vs veh, CDK5R1 / RFU, ZRANB3 / Fold change vs veh, ZRANB3 / RFU, CUL4A / Fold change vs veh, CUL4A / RFU, CCNY / Fold change vs veh, CCNY / RFU, UFL1 / Fold change vs veh, UFL1 / RFU, COG3 / Fold change vs veh, COG3 / RFU, DIAPH2 / Fold change vs veh, DIAPH2 / RFU, SKA2 / Fold change vs veh, SKA2 / RFU, AFF3 / Fold change vs veh, AFF3 / RFU, LMF1 / Fold change vs veh, LMF1 / RFU, IPO11 / Fold change vs veh, IPO11 / RFU, DFFB / Fold change vs veh, DFFB / RFU, FOXP1 / Fold change vs veh, FOXP1 / RFU, CARD8 / Fold change vs veh, CARD8 / RFU, STRN3 / Fold change vs veh, STRN3 / RFU, ADK / Fold change vs veh, ADK / RFU, RASSF2 / Fold change vs veh, RASSF2 / RFU, WIPF1 / Fold change vs veh, WIPF1 / RFU, LARP1B / Fold change vs veh, LARP1B / RFU, RASA1 / Fold change vs veh, RASA1 / RFU, RB1 / Fold change vs veh, RB1 / RFU, PPFIA1 / Fold change vs veh, PPFIA1 / RFU, MAT2A / Fold change vs veh, MAT2A / RFU, CCT5 / Fold change vs veh, CCT5 / RFU, WDR92 / Fold change vs veh, WDR92 / RFU, CUX1 / Fold change vs veh, CUX1 / RFU, TTC7A / Fold change vs veh, TTC7A / RFU, TMEM135 / Fold change vs veh, TMEM135 / RFU, DEPTOR / Fold change vs veh, DEPTOR / RFU, CPM / Fold change vs veh, CPM / RFU, DNAJB6 / Fold change vs veh, DNAJB6 / RFU, CACNA2D3 / Fold change vs veh, CACNA2D3 / RFU, DTX4 / Fold change vs veh, DTX4 / RFU, TFCP2 / Fold change vs veh, TFCP2 / RFU, GMCL1 /// GMCL1P1 / Fold change vs veh, GMCL1 /// GMCL1P1 / RFU, AEBP2 / Fold change vs veh, AEBP2 / RFU, SNHG1 /// SNORD22 /// SNORD25 /// SNORD26 /// SNORD27 /// SNORD28 /// SNORD29 /// SNORD31 / Fold change vs veh, SNHG1 /// SNORD22 /// SNORD25 /// SNORD26 /// SNORD27 /// SNORD28 /// SNORD29 /// SNORD31 / Fold change (Aza/veh), C12orf56 (ProbeSet 11735607_a_at) / Fold change (ACY-1035/veh), C12orf56 (ProbeSet 11735607_a_at) / Fold change (Aza/veh), FGFR1OP (ProbeSet 11751329_s_at) / Fold change (ACY-1035/veh), FGFR1OP (ProbeSet 11751329_s_at) / Fold change (Aza/veh), VPS36 (ProbeSet 11739960_a_at) / Fold change (ACY-1035/veh), VPS36 (ProbeSet 11739960_a_at) / RFU SYPL1 (11715823_x_at) / Fold change /veh SYPL1 (11715823_x_at) / RFU IGFBP7 (11715501_s_at) / Fold change /veh IGFBP7 (11715501_s_at) / RFU REEP3 (11722064_at) / Fold change /veh REEP3 (11722064_at) / RFU IGLL1 (11728026_x_at) / Fold change /veh IGLL1 (11728026_x_at): dose or concentration left out as unconfirmed
Conditions: MV-4-11 cells, 48 hours

Nc1ncn([C@@H]2O[C@H](CO)[C@@H](O)[C@H]2O)c(=O)n1 [azacitidine]
RFU C5orf56 (11738088_a_at): 66.32 RFU

From article PMC5218480 (PLoS ONE, 2017)
